From US8026219B2, “Antimicrobial linear peptides” (Universitat de Girona, priority 2006, dated 2011)
Residues, ends and D or L forms follow the SMILES beside them. No end group written: not given here. *: point of attachment. Bz = O=C(c1ccccc1)*

How the values were obtained:
[1] = system: Erwinia amylovora PMV6076; assay: Minimum inhibitory concentration (MIC), microbial growth by optical density; type: cell-based; conditions: 48 h incubation at 25° C., TSB medium
Experimental: (§1) Each experiment was performed twice.

[2] = system: Pseudomonas syringae EPS94; assay: as above; type: cell-based; conditions: 48 h incubation at 25° C., TSB medium
Experimental: as §1

[3] = system: erythrocytes from fresh human blood; conditions: 5% erythrocytes, 1 h at 37° C., relative to 200 μM melittin; for % Haemolysis 50 μM: 50 μM peptide; for % Haemolysis 150 μM: 150 μM peptide; for % Haemolysis 250 μM: 250 μM peptide
Experimental: A description of the methodology used to determine the haemolytic activity is found in Oren et al, Biochemistry, 2000, 39, 6103-6114, and in Raguse et al., J. Am. Chem. Soc., 2002, 124, 12774-12785.
The haemolytic activity of the peptides of the invention was evaluated by determining the release of haemoglobin which is produced on placing in contact a solution of the peptides with a suspension of erythrocytes 5% by volume, from fresh human blood.
The blood was collected aseptically using a Vactainer® K2E system (Belliver, Great Britain) with EDTA and it was stored at 4° C. for a period lower than 2 hours.
The blood was centrifuged at 6000 g for 5 minutes to separate the erythrocytes. There were washed three times with TRIS buffer (10 mM TRIS, 150 mM NaCl, pH 7.2) and they were resuspended in TRIS buffer until obtaining a suspension which contained 10% by volume of erythrocytes.
The peptides were solubilized in TRIS buffer until a final concentration of 100, 300 and 500 μM
The replicas were used for each peptide and concentration.
65 μl of 10% erythrocyte suspension was mixed with 65 μl of the peptide solution in each well of a 96-well plate (Micro-Amp®, Applied Biosystems, USA) (5% by volume of erythrocytes) and the mixture was incubated for 1 h at 37° C. under stirring. In this way, the erythrocyte suspensions were subjected to peptide concentrations of 50, 150 and 250 μM.
Next, the plates were centrifuged at 3500 g during 10 minutes and aliquots were transferred of 80 μl of supernatant to microplates with 100 wells (Bioscreen), which were diluted with 80 μl of milli-Q water.
The degree of haemolysis was determined from the absorbance at 540 nm with a Bioscreen plate reader.
The complete positive haemolysis control was determined in a TRIS buffer solution which contained 200 μM melittin (Sigma-Aldrich, Spain)
The percentage of haemolysis (H) was determined using the following equation: H=100×[Op−Ob)/(Om−Ob)]
Where OP as the optical density measured for a determined peptide concentration, Ob was the optical density of the buffer solution, and Om was the optical density for the positive control with melittin.

Proteinase K = Proteinase K (Parengyodontium album, UniProt P06873); assay: in vitro; conditions: Proteinase K (1 μg/ml), pH 7.6
Chain of Proteinase K (P06873 106-384): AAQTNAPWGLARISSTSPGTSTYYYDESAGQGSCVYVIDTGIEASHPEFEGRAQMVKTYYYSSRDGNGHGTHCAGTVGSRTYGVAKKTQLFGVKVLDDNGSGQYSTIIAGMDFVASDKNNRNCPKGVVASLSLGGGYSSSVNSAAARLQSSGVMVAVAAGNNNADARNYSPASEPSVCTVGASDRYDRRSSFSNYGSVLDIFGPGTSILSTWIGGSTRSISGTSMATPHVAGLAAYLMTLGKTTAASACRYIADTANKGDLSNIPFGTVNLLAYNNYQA
Experimental: The degradation is expressed as the percentage of peptide degraded after a determined time interval calculated from the decrease in the area of the peak of the native peptide by HPLC.
The stability of the peptides of the invention to degradation by proteases is determined by a peptide digestion test by Proteinase K (Sigma-Aldrich Corporation, Madrid, Spain).
A solution of 50 μg/ml of the peptide and 1 μg/ml of Proteinase K in 100 mM TRIS buffer at pH 7.6 was used, at ambient temperature.
The progress of the peptide excision was determined chromatographically at times between 5 and 45 minutes. To do this a reverse phase C18 column was used (Kromasil, 4.6×40 mm; 3.5 μm particle size), and linear gradients from 0.98:0.02 to 0:1 during 7 min performing the detection by absorbance in ultraviolet light at 220 nm.

[4] = system: Xanthomonas vesicatori 2133-2; assay: Minimum inhibitory concentration (MIC), microbial growth by optical density; conditions: 48 h incubation at 25° C., TSB medium
[5] = listed as peptide described by Cavallarin et al

| Molecule | range of concentrations including the MIC, E. amylovora [1] | range of concentrations including the MIC, P. syringae [2] | % Haemolysis 50 μM [3] | % Haemolysis 150 μM [3] | % Haemolysis 250 μM [3] | metabolised at 0.75 h, 50 μg/ml (Proteinase K) | range of concentrations including the MIC, X. vesicatoria [4] | range of concentrations including the MIC, E. amylovora [1, 5] | range of concentrations including the MIC, P. syringae [2, 5] | range of concentrations including the MIC, X. vesicatoria [4, 5] |
| --- | --- | --- | --- | --- | --- | --- | --- | --- | --- | --- |
| WKLFKKILKFL-NH2 [BP019] | 5 to 7.5 µM | 5 to 7.5 µM | 57% | 94% | 100% | 87% | 2.5 to 5 µM |  |  |  |
| WKLFKKILKVL-NH2 [Comparative example, reference compound] |  |  |  |  |  | 100% |  | over 7.5 μM | over 7.5 μM | over 7.5 μM |
| CC[C@H](C)[C@H](NC(=O)[C@H](CCCCN)NC(=O)[C@H](CCCCN)NC(=O)[C@H](Cc1ccccc1)NC(=O)[C@H](CC(C)C)NC(=O)[C@H](CCCCN)NC(=O)[C@H](CCCCN)NS(=O)(=O)c1ccc(C)cc1)C(=O)N[C@@H](CC(C)C)C(=O)N[C@@H](CCCCN)C(=O)N[C@H](C(=O)N[C@@H](CC(C)C)C(N)=O)C(C)C [BP030] | 5 to 7.5 µM | 5 to 7.5 µM | 25% | 70% | 80% |  | 5 to 7.5 µM |  |  |  |
| CC[C@H](C)[C@H](NC(=O)[C@H](CCCCN)NC(=O)[C@H](CCCCN)NC(=O)[C@H](Cc1ccccc1)NC(=O)[C@H](CC(C)C)NC(=O)[C@H](CCCCN)NC(=O)[C@@H](N)Cc1ccccc1)C(=O)N[C@@H](CC(C)C)C(=O)N[C@@H](CCCCN)C(=O)N[C@@H](Cc1ccc(O)cc1)C(=O)N[C@@H](CC(C)C)C(N)=O [BP090] | 5 to 7.5 µM | 5 to 7.5 µM | 11% | 57% | 84% |  | 2.5 to 5 µM |  |  |  |
| CC[C@H](C)[C@H](NC(=O)[C@H](CCCCN)NC(=O)[C@H](CCCCN)NC(=O)[C@H](Cc1ccccc1)NC(=O)[C@H](CC(C)C)NC(=O)[C@H](CCCCN)NC(=O)[C@H](CCCCN)NC(=O)c1ccccc1)C(=O)N[C@@H](CC(C)C)C(=O)N[C@@H](CCCCN)C(=O)N[C@@H](Cc1ccc(O)cc1)C(=O)N[C@@H](CC(C)C)C(N)=O [BP103] | 7.5 µM | 5 to 7.5 µM | 42% | 83% | 80% |  | <2.5 µM |  |  |  |
| FKLFKKILKFL-NH2 [BP066] | 2.5 to 5 µM | 5 to 7.5 µM | 9% | 63% | 89% |  | 2.5 to 5 µM |  |  |  |
| CC[C@H](C)[C@H](NC(=O)[C@H](CCCCN)NC(=O)[C@H](CCCCN)NC(=O)[C@H](Cc1ccccc1)NC(=O)[C@H](CC(C)C)NC(=O)[C@H](CCCCN)NC(=O)[C@H](Cc1ccc(O)cc1)NC(=O)c1ccccc1)C(=O)N[C@@H](CC(C)C)C(=O)N[C@@H](CCCCN)C(=O)N[C@@H](CCCCN)C(=O)N[C@@H](CC(C)C)C(N)=O [BP122] (Bz-YKLFKKILKKL-NH2) | >7.5 µM | 5 to 7.5 µM | 32% | 78% | 96% |  | 2.5 to 5 µM |  |  |  |
| Ac-WKLFKKILKVL-NH2 [BP008] |  |  |  |  |  | 100% |  |  |  |  |
